Experimental data published in article PMC11483813, “Bombesin-Targeted Delivery of β-Carboline-Based Ir(III) and Ru(II) Photosensitizers for a Selective Photodynamic Therapy of Prostate Cancer” (Inorganic Chemistry, 2024).

Experiments:
[1] = test system: PC-3 prostate cancer cells; type: cell-based, human; conditions: PC-3; 4 h incubation, kept in the dark 1 h; MTT after 48 h; read-out: IC50 PC-3 Dark
Method: (§1) The effect of Ir-H, Ir-Me, Ru-H, and Ru-Me on cell viability was evaluated in the A549 lung cancer and PC-3 prostate cancer cell lines by MTT assays. PC-3 cells were specifically chosen due to their high expression levels of GRPR on their surface, allowing for further evaluation of the activity of the BN3-derived metallopeptides Ir-BN and Ru-BN.[38],[51] In contrast, A549 cells express low levels of GRPR.[52] MRC-5 fibroblasts were used as a nonmalignant cell model.[53]Table 3 reports the half maximal inhibitory concentration (IC50) values obtained after treating the cells either under dark conditions or upon exposure to blue light at a dose of 24.1 J cm^–2. The photocytotoxicity index (PI), defined as the IC50,dark/IC50,light, is provided for each compound.
(§2) Stock solutions of the complexes and metallopeptides were initially prepared at a concentration of 5 mM in DMSO and then diluted in sterile distilled water to achieve a final concentration of 1 mM, with a resulting DMSO concentration of 20% v/v. Cells were seeded into 96-well plates at a density of 2500 cells/well for A549, 3500 cells/well for PC-3, and 5500 cells/well for MRC-5. Following 24 h of incubation for attachment, cells were treated in triplicate with freshly prepared working solutions of the compounds in the culture medium at concentrations ranging from 0.001 to 100 μM. The maximum DMSO concentration in the working solutions was 2% (v/v). The working concentrations for each compound were adjusted based on their cytotoxicity. Following a 4 h incubation period to allow internalization of the compounds into the cells, the plates were kept in dark conditions or exposed to blue (460 nm) or red (655 nm) light for 1 h using an LED system (LuxLight), providing a total dose of 24.1 J cm^–2. All plates were incubated in the dark for an additional 43 h. Cells were then washed with phosphate-buffered saline (PBS), and 100 μL of fresh culture medium containing 10% of 3-[4,5-dimethylthiazol-2-yl]-2,5 diphenyl tetrazolium bromide (MTT) solution (0.5 mg/mL) (Sigma- Aldrich) was added to each well. After a 2 h incubation period, the formazan crystals were dissolved in DMSO, and the absorbance was measured at 570 nm using a Multiscan Plate Reader (Synergy 4, Biotek, Winooski, USA). The concentration causing a 50% reduction in cell viability (IC50) was determined for each compound with the Gen5 software (BioTek). At least three independent experiments were conducted for each compound.

MRC-5 fibroblasts = type: cell-based, human; conditions: MRC-5; 4 h incubation, kept in the dark 1 h; MTT after 48 h; read-out: IC50 MRC-5 Dark
Method: as §1, §2

A549 lung cancer cells = type: cell-based, human; conditions: A549; 4 h incubation, kept in the dark 1 h; MTT after 48 h; read-out: IC50 A549 Dark
Method: as §1, §2

[2] = parameters: method as in earlier work; conditions: standard reference; H2O:DMSO (55:45); ref 6 (SI); cited from earlier work

Row | Structure (SMILES) | IC50 [1] | IC50 (MRC-5 fibroblasts) | IC50 (A549 lung cancer cells) | singlet oxygen quantum yield (ΦΔ) [2]
1 | N.N.[Cl][Pt][Cl] [Cisplatin, reference compound] | 5.55 ± 0.97 µM | 5.34 ± 0.38 µM | 5.99 ± 1.2 µM | 
2 | O=C([O-])c1c(Cl)c(Cl)c(Cl)c(Cl)c1-c1c2cc(I)c(=O)c(I)c-2oc2c(I)c([O-])c(I)cc12.[Na+].[Na+] [rose bengal] |  |  |  | 0.75
